What all share (format): functional, cell-based
One test has as its system MCF7. The test can be described thus: Cytotoxicity against human MCF7 cells incubated for 48 hrs by MTT assay. As to conditions: MCF7, 48 h. (In general: Tetrazolium dyes change colour on reduction, which living cells bring about.)
A short description of test [1]: Inhibition of erastin-induced cell death in human HT-1080 cells.
Test [2] in a line: Inhibition of ferroptosis in tamoxifen induced Gpx4-/- mouse MEF cells.
Test [3] has as its system HT-22. The test can be described thus: Inhibition of erastin-induced ferroptosis in mouse HT-22 cells incubated for 24 hrs by MTT assay. As to conditions: HT-22, 24 h.
Test [4] concerns HT-22. The test can be described thus: Inhibition of RSL3-induced ferroptosis in mouse HT-22 cells incubated for 24 hrs by MTT assay. Particulars: HT-22, 24 h.

pEC50, pIC50: −log10 of the molar value.

Broadly, the pIC50 is the IC50 on a negative log10 scale, so that one unit is a factor of ten. A high value points to a low IC50. As a reminder, the pEC50 is −log10 of the EC50, conventionally taken in molar units. Lower therefore signals a high EC50.

For `COc1cc(O)c2c(=O)cc(-c3ccc(O)c(-c4c(O)cc5oc(-c6ccc(O)cc6)cc(=O)c5c4OC)c3)oc2c1`, the pIC50 in the test with MCF7 is 4.92.
As for `CCOC(=O)c1ccc(NC2CCCCC2)c(N)c1`, the pIC50 in test [1] was 7.02.
As for `Clc1cccc(CNC2=Nc3ccccc3NC23CCNCC3)c1`, the pIC50 in test [2] was 7.66.
`CCO[C@@H]1C[C@@H]2C[C@@H]([C@@]3(C)[C@H](C)C[C@H](OC(C)=O)[C@]4(COC(C)=O)[C@@H]3CC[C@H](OC(=O)C(C)CC)[C@]43CO3)O[C@@H]2O1` (stereo partly specified): the pEC50 with HT-22 [3] is 5.39; in the test with HT-22 [4], 5.44.
Turning to `CCOC(=O)c1ccc(NC2CCCCC2)c(NCc2ccccc2)c1`, the negative-log IC50 (pIC50) in test [1] is 8.22.

The values are drawn from ChEMBL document CHEMBL5331083, “Targeting ferroptosis: Paving new roads for drug design and discovery” (Eur J Med Chem, 2023).
